{
  "source": "paper PMC9606572",
  "about": "“Development of an innovative in vivo model of PJI treated with DAIR” (Frontiers in Medicine, 2022)",
  "key": {"[1]": {"assay": "Renal tolerance of vancomycin regimen (serum creatinine)", "assay_type": "in vivo, New Zealand White rabbits", "procedure": "Creatinine serum concentrations were measured in group A animals using a Fuji Dri-Chem analyzer (Fujifilm Corporation, Tokyo, Japan) with CRE-PIII slides, as per the manufacturer’s instructions."}, "MRSA strain ATCC 33591": {"tested_on": "MRSA strain ATCC 33591", "assay_type": "in vivo, New Zealand White rabbits", "settings": "surgical debridement at day 7 followed by 50 mg/kg IV vancomycin twice a day for 7 days, N = 5", "excerpt": "Following general anesthesia, the animals were installed in a Class II biosafety cabinet. The operated leg was disinfected twice with 2% chlorhexidine gluconate alcohol solution (Qualiphar, Bornem, Belgium) and the leg was sterile draped. The joint was approached through a medial parapatellar incision. The medial meniscus was resected and 5 mm of the medial tibial plateau was removed using a high-speed burr. The cut height was confirmed using a spacer block. The bone surface was then further prepared using a custom tibial punch. After irrigation of the joint space with sterile saline, the final implants were impacted. The joint was then further irrigated with sterile saline. The joint capsule, subcutaneous tissues, and skin were closed separately with running sutures using a 3/0 polyester thread. The joints of groups B and C animals were inoculated by intra-articular injection of 100 μl of a 6.5 log10 CFU/ml MRSA suspension after the closure of the subcutaneous tissues. […] The wounds were then covered using an antiseptic spray and dressed.\nAnimals of groups C were operated on 1 week after the initial surgery. Following anesthesia, the operated leg was disinfected twice with 2% chlorhexidine gluconate alcohol solution and the leg was draped. The initial approach was re-used. Pus samples were collected immediately after the capsule was breached and stored on ice until analyzed. […]"}, "[2]": {"tested_on": "Methicillin-Resistant Staphylococcus aureus strain ATCC 33591", "settings": "MRSA ATCC 33591; determined previously; cited from earlier work", "procedure": "The Methicillin-Resistant Staphylococcus aureus strain ATCC 33591, previously used in our laboratory for biofilms models, was used. […] Bacteria were grown overnight on tryptic soy agar (TSA) plates from frozen stock. Some colonies were then suspended in sterile PBS, adjusted to an OD620 nm of 0.5 (∼8 log10 CFU), and diluted 1:10 in PBS. The bacterial suspension was stored at 4°C until inoculation (1.5–2 h). Serial dilutions of the bacterial inoculum were plated on TSA to confirm the bacterial inoculum."}, "[3]": {"assay": "Vancomycin serum pharmacokinetics and therapeutic monitoring in rabbits", "settings": "50 mg/kg IV every 12 h, Roche VANC3 assay"}},
  "data": [
    {"smiles": "CN[C@H](CC(C)C)C(=O)N[C@H]1C(=O)N[C@@H](CC(N)=O)C(=O)N[C@H]2C(=O)N[C@H]3C(=O)N[C@H](C(=O)N[C@H](C(=O)O)c4cc(O)cc(O)c4-c4cc3ccc4O)[C@H](O)c3ccc(c(Cl)c3)Oc3cc2cc(c3O[C@@H]2O[C@H](CO)[C@@H](O)[C@H](O)[C@H]2O[C@H]2C[C@](C)(N)[C@H](O)[C@H](C)O2)Oc2ccc(cc2Cl)[C@H]1O", "note": "[vancomycin, Vancomycin]", "values": [
      {"measurement": "renal toxicity", "setting": "[1]; NZW rabbits, 50 mg/kg IV vancomycin twice a day", "result": "No renal toxicity was observed"},
      {"measurement": "serum creatinine concentrations throughout the experiment", "setting": "[1]; group A NZW rabbits, 50 mg/kg IV vancomycin twice a day for 7 days, Fuji Dri-Chem analyzer", "result": "stable"},
      {"measurement": "bacterial counts in all samples (bone, pus, implant) except the joint capsule, group C versus group B", "setting": "MRSA strain ATCC 33591; 5.5 log10 CFU MRSA inoculum, p < 0.0001", "result": "significantly reduced"},
      {"measurement": "mean difference in CFU counts in capsule samples, group C versus group B", "setting": "MRSA strain ATCC 33591; not statistically significant, p = 0.35", "result": 0.74, "unit": "log10 CFU/g"},
      {"measurement": "MBEC", "setting": "[2]", "result": "> 1024", "unit": "µg/mL"},
      {"measurement": "MIC", "setting": "[2]", "result": 1, "unit": "µg/mL"},
      {"measurement": "vancomycin serum concentration 12 h after the injections", "setting": "[3]; group A NZW rabbits", "result": "~0", "unit": "µg/mL"},
      {"measurement": "AUC0–12 h following the first vancomycin injection", "setting": "[3]; group A non-infected NZW rabbits, 1st injection, trapezoid rule, mean, N = 5, SD 15.79", "result": 213.0, "unit": "mg·h/L"}
    ]}
  ]
}
